# In paper PMC4764201, “High Throughput Screen for Escherichia coli Twin Arginine Translocation (Tat) Inhibitors” (PLoS ONE, 2016):
# Key:
# [1] = system: Escherichia coli Tat pathway; assay: Live cell assay: total mCherry fluorescence of cells producing spTorA-mCherry-SsrA (primary HTS assay); format: cell-based; conditions: for effect on mCherry fluorescence in culture: nigericin and/or valinomycin, 50 μM each
# Description: Having obtained the calibration and validation data described in the previous sections, we next established the protocol for the HTS. Details are provided in the Materials and Methods section. Here, we briefly summarize the assay. A single colony of E. coli strain MC4100(DE3) containing plasmids encoding TatABC and spTorA-mCherry-SsrA was inoculated into LB and grown overnight. The next morning, cells were transferred to fresh media, the production of TatABC and spTorA-mCherry-SsrA was induced, and cultures were aliquoted onto plates with test compounds. NaSCN was included in control wells to simulate a hit. Cells were grown for 8 h, followed by incubation at 4°C overnight, and then read the next day. Setting the total cellular fluorescence obtained with spTorA-mCherry-H6 under Tat^++ conditions to 100%, spTorA-mCherry-SsrA yielded a total cellular fluorescence signal of 63±14%, consistent with SsrA-induced degradation of the mCherry protein. The total cellular fluorescence was further reduced to 36±14% in the presence of 30 mM NaSCN (simulated hit), and to 41±6% in the absence of TatABC, verifying the Δψ- and Tat-dependence of the fluorescence signal (Fig 4D).
# A single colony of E. coli strain MC4100(DE3) (pTatABC-DUET1, pTorA-mCherry-SsrA) was inoculated into a 100 mL LB culture supplemented with Ap and Cm and grown at 37°C with shaking (250 rpm) overnight. Cells were harvested by centrifugation at 4,000g for 10 min at room temperature (RT), suspended in 10 mL fresh LB broth supplemented with Ap and Cm, and the optical density (A500) was determined. Simultaneously, 700 mL LB supplemented with 100 mM arabinose, 2 mM IPTG, 100 μg/mL Ap and 68 μg/mL Cm was filter-sterilized (0.22 μm), and then divided into 200 mL (A) and 500 mL (B) portions. Sterile NaSCN (30 mM final; 1.5 mL of 4 M NaSCN) was added to portion A, and an equal ratio of sterile water was added to portion B (3.75 mL). Media and cells were transferred to the HTS facility on ice.
# A CyBi-Well vario pipetting workstation (CyBio, Jena, Germany) was used to dispense library compounds and cultures. Library compounds (1 μL) solubilized in DMSO were added to 384-well black, clear-bottomed plates (Greiner Bio-one, Germany) in columns 3 to 22 (320 wells/plate). For controls, DMSO (1 μL) was added to each well in columns 1, 2, […], to achieve DMSO uniformity across the plate. Both portions of LB media were inoculated with E. coli MC4100(DE3) (pTatABC-DUET1, pTorA-mCherry-SsrA) from the concentrated stock to a final A500 = 0.15. The media with 30 mM NaSCN (positive control, or simulated hit) was dispensed into each well of columns 1 and 24 (49 μL each). An equivalent volume of media without NaSCN was dispensed into each well of columns 2 to 23. Columns 2 and 23 lacked NaSCN and test compounds and served as negative controls. The first 12,800 compounds were screened at 5 μM (plates 1–40), and the remaining 38,800 compounds were screened at 20 μM (plates 41–162).
# (§1) The plates containing cells and dispersed test compounds were grown with shaking (200 rpm) at 25°C for 8 h. Plates were individually mounted, not stacked, on a hollow plastic platform, allowing adequate air circulation. Following the 8 h incubation, plates were transferred to 4°C for 16 h. Each plate was covered with an empty plate to prevent condensation on the lid. […] Following the incubation, plates were read using a BMG Polarstar Omega plate reader (BMG Labtech, Ortenberg, Germany) to determine optical densities (A500) and mCherry fluorescence intensities (EX = 584 nm, EM = 620 nm).
# Supplementary file pone.0149659.s003.tiff: S3 Fig IC50's for Hit Compound 181^JS. (A) The total cellular mCherry fluorescence (live cell assay; n = 1), (B) the in vitro NADH-dependent Tat transport efficiency of pre-SufI (n = 1), and (C) the maximum transmembrane electrical potential gradient (n = 1) were measured for a range of concentrations of compound 181^JS (S2E Fig). (D) SDS-PAGE gel showing in-gel fluorescence data used in (B). […]
# [2] = system: E. coli MC4100(DE3); assay: Cell growth (optical density A500) under Tat++ conditions; format: cell-based, Escherichia coli
# Description: Fig 4 Effect of Oxidative Phosphorylation Inhibitors on In Vivo Tat Transport and Sensitivity of Fluorescence Detection on Plates. (A) Effect of oxidative phosphorylation inhibitors on cell growth and mCherry fluorescence under Tat^++ conditions. Cells producing spTorA-mCherry-SsrA under Tat^++ conditions were grown at 25°C for 8 h in the presence of the indicated respiratory inhibitors. After overnight incubation at 4°C, optical densities (upper panel; A500) and total mCherry cellular fluorescence intensities (lower panel; EX = 587 nm, EM = 610 nm) were measured (n = 3). Nigericin (N; 50 μM) is a H^+/K^+ exchanger, which collapses the ΔpH gradient. Valinomycin (V; 50 μM) is a K^+ ionophore, which collapses the Δψ. NaSCN (SCN; 50 mM) collapses the Δψ. NaN3 (N3; 0.1%) inhibits the cytochrome bo3 terminal oxidase. (B) Effect of NaSCN concentration on cell density and total mCherry cellular fluorescence. Measurements were made after incubating cells overnight at 4°C (n = 3). (C) Calibration and sensitivity of mCherry fluorescence detection in 384-well plates. Overnight cultures of E. coli MC4100(DE3) cells were diluted to A500 = 0.25, 0.2, 0.15, 0.10 and 0.05, and aliquoted into 384-well plates. The spTorA-mCherry-SsrA and TatABC proteins were induced together or neither were induced, as indicated. The cells were incubated at 25°C for 8 hours, and stored overnight at 4°C. Optical densities (upper panel) and mCherry fluorescence intensities (lower panel) were determined with a BMG Polarstar Omega plate reader (at 500 nm for absorbance; EX = 584 nm, EM = 620 nm for fluorescence). For comparison, the absorbance and fluorescence intensities from purified spTorA-mCherry-H6 (30, 25, 20, 15, 10 and 5 nM) are also shown (n = 3 plates, 16 wells/plate). (D) Simulated hits on 384-well plates. Using the approach described in (C), cells (A500 = 0.15) were grown on plates under the indicated conditions, and then fluorescence intensities were measured. spTorA-mCherry-SsrA was used for conditions II-IV. spTorA-mCherry-H6 was used for a minus SsrA control (I; 100%). The SsrA tag decreased the mCherry fluorescence intensity (II; 63±14%), consistent with a decrease in cytoplasmic mCherry concentration due to SsrA-dependent degradation.
# as §1
# Supplementary file pone.0149659.s005.tiff: S5 Fig Effect of P. aeruginosa Tat Inhibitors on E. coli Cell Growth and Tat Transport. The concentration-dependent effects of Bay 11–7082 (A) and N-phenylmaleimide (B) on bacterial growth (black) and in vivo Tat transport of spTorA-mCherry-SsrA (red) was determined under Tat^++ conditions (top). An overnight culture of MC4100(DE3) (pTorA-mCherry-SsrA, pTatABC-Duet1) was diluted 1:50 in 10 mL fresh LB broth with appropriate antibiotics and dispensed (2 mL) into 5 tubes, and growth was continued at 37°C with shaking at 200 rpm until A500 ≈ 0.5. The indicated concentrations of the two compounds were added, and the expression of spTorA-mCherry-SsrA and TatABC were induced. Cultures were grown for another 8 h at 25°C. Cell growth was assayed by A500, and cells (1 mL, A500 = 1.0) were fractionated into cytoplasmic (C) and periplasmic (P) fractions as described. Transport of spTorA-mCherry-SsrA was assayed by in-gel fluorescence of mCherry (upper gels) and Western blot analyses (middle gels). […]
# [3] = target: E. coli Tat machinery (IMVs containing overproduced TatABC) (Escherichia coli, UniProt P69423+P69425+P69428); conditions: cited from earlier work; for effect on Tat transport in vitro: 2.5 μM of each of the two ionophores, both added
# E. coli Tat machinery (IMVs containing overproduced TatABC), sequence (P69423 2-258): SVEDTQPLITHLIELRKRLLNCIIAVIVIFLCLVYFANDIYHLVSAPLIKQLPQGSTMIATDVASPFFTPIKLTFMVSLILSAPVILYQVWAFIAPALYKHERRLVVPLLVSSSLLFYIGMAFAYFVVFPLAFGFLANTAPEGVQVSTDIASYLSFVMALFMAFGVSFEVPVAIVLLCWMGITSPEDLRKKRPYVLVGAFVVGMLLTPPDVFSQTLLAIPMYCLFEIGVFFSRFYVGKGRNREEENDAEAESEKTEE
# E. coli Tat machinery (IMVs containing overproduced TatABC), sequence (P69425 whole entry): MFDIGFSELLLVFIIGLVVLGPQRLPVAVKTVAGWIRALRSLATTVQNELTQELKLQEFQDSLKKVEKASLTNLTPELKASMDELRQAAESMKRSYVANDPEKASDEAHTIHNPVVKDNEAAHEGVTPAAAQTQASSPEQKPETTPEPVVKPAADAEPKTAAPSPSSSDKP
# E. coli Tat machinery (IMVs containing overproduced TatABC), sequence (P69428 whole entry): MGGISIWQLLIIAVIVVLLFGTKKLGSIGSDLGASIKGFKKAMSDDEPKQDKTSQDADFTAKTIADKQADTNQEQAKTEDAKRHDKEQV
# [4] = nigericin and/or valinomycin, 50 μM each
smiles,measurement,setting,value
[N-]=[N+]=[N-].[Na+] [Sodium azide],effect on mCherry fluorescence signal,[1]; NaN3 0.1%,decreased the mCherry fluorescence signal
same,effect on cell growth,[2]; NaN3 0.1%,inhibited cell growth
N#C[S-].[Na+] [NaSCN],total cellular fluorescence (mCherry),"[1]; 30 mM NaSCN, spTorA-mCherry-H6 under Tat++ = 100%, spTorA-mCherry-SsrA without NaSCN 63±14%",36±14%
same,reduction of mCherry fluorescence,"[1]; NaSCN 50 mM, Tat++ cells, 25°C 8 h",~ 40%
same,concentration sufficient to maximally reduce the mCherry fluorescence signal without affecting cell growth,"[1]; dose response, Tat++ cells",30 mM
same,effect on growth of E. coli cultures,[2]; NaSCN 50 mM,without affecting growth
same,effect on in vitro Tat transport,[3]; NaSCN alone,completely inhibits
CO[C@@H]1C[C@@H](C[C@H]2CC[C@H](C)[C@H]([C@@H](C)C(=O)O)O2)O[C@]2(O[C@](C)([C@H]3CC[C@@](C)([C@@H]4O[C@@H]([C@H]5O[C@@](O)(CO)[C@H](C)C[C@@H]5C)C[C@@H]4C)O3)C[C@H]2C)[C@@H]1C [nigericin],effect on mCherry fluorescence in culture,[1],did not affect
same,effect on cell growth,[2]; [4],did not affect
same,effect on Tat transport in vitro,[3],completely block
CC(C)[C@@H]1NC(=O)[C@H](C)OC(=O)[C@@H](C(C)C)NC(=O)[C@@H](C(C)C)OC(=O)[C@H](C(C)C)NC(=O)[C@H](C)OC(=O)[C@@H](C(C)C)NC(=O)[C@@H](C(C)C)OC(=O)[C@H](C(C)C)NC(=O)[C@H](C)OC(=O)[C@@H](C(C)C)NC(=O)[C@@H](C(C)C)OC1=O [valinomycin],effect on mCherry fluorescence in culture,[1],did not affect
same,effect on cell growth,[2]; [4],did not affect
same,effect on Tat transport in vitro,[3],completely block
